Data as given in patent US9212209B2, “Screening methods for spinal muscular atrophy” (Indiana University Research and Technology Corporation, priority 2012, dated 2015).
pEC50: −log10 of the molar value. Read-outs that look alike come from different tables or passages of the source.

Test system: SMN2-luciferase reporter
Assay: SMN2-luciferase reporter assay (clonal HEK-293 SMN2-luc cells)
Type: cell-based, human
Design: % activation: concentration or dose not given beside the values
Settings: for Emax: read-out: Max % Activity; for % activation: Table 5; for Max. fold increase: cell-based reporter response to known SMN2 modulating compounds
Description: The reporter cell lines were plated at 50,000 cells per well in 96-well plates and incubated overnight. Compounds were added to each well and incubated at 37° C. overnight. The final DMSO concentration was 0.1%. Luciferase activity was assayed using either STEADYGLO (PROMEGA E2510) or DUALGLO (PROMEGA E2920) luciferase using the WALLAC ENVISION multilabel reader. For detailed assay conditions see Table 2A. All data points were transformed from CPS to percent increase over basal expression in the treated control wells (DMSO or H2O as appropriate).
Plates were sealed with porous paper tape and incubated for 24 hours. […] For comparison, data points were transformed from CPS to percent activation over basal expression in the DMSO treated control wells.
For comparison, all data points are expressed as percent increase over basal luciferase expression in the control cells.

[1] = Homo sapiens, HEK293, reporter assay, Table 6, read-out: Ec50
[2] = Homo sapiens, HEK293, reporter assay, Table 6

SMILES | Active (reporter assay, Table 6) | other results
COc1cc2c(c(OC)c1OC)C(c1ccccc1Cl)CC(=O)N2 (centres unmarked) [CAL-21] | Yes | pEC50 [1]: 3.60; Emax [2]: 14%
COc1cc2c(c(OC)c1OC)C(c1cc(Cl)ccc1F)N(CCN(C)C)C(=O)N2 (centres unmarked) [LDN-214097] | No | –
CC(C)c1cc(C(=O)Nc2ccc(F)c(Cl)c2)nn1C [LDN-211856] | No | –
CC(C)c1nc(C(=O)Nc2ccc(F)c(Cl)c2)cs1 [LDN-211986] | Yes | pEC50 [1]: 5.82; Emax [2]: 100%
Brc1ccc(-c2cn3ccccc3n2)cc1 [Compound 66278] | – | % activation (reporter assay): 114%
Cc1c(C(=O)NCCC(C)C)oc2ccc3c(c12)C(O)CC(C)(C)O3 (centres unmarked) [Compound 79199] | – | % activation (reporter assay): 102%
COc1cc2c(c(OC)c1OC)C(c1cc(Cl)ccc1F)OC(=O)N2 (centres unmarked) [LDN-213768] | Yes | pEC50 [1]: 5.23; Emax [2]: 150%
O=C(Nc1ccc(F)c(Cl)c1)C1=NOC(C2CC2)C1 (centres unmarked) [CAL-10] | Yes | pEC50 [1]: 5.70; Emax [2]: 250%
COc1cc2c(c(OC)c1OCCO)C(c1cc(Cl)ccc1F)CC(=O)N2 (centres unmarked) [LDN-213771] | No | –
CC(C)c1cc(C(=O)Nc2ccc(F)c(Cl)c2)n[nH]1 [LDN-211830] | No | –
CC1CC(C(=O)Nc2ccc(Cl)cc2F)=NO1 (centres unmarked) [CAL-6] | Yes | pEC50 [1]: 5.19; Emax [2]: 180%
COc1cc2c(c(OC)c1OC)C(c1ccc(F)c(F)c1)CC(=O)N2 (centres unmarked) [CAL-57] | No | –
COC1=C2C(=CC(OC)C1OC)NC(=O)CC2c1cc(NC(=O)c2ccccc2)ccc1F (centres unmarked) [LDN-212359] | No | –
O=C1CCc2cc(C(=O)CSc3ccccc3)ccc2N1 [Compound 98541] | – | % activation (reporter assay): 124%
COc1cc2c(c(OC)c1OC)C(c1ccc(Cl)c(Cl)c1)CC(=O)N2 (centres unmarked) [LDN-212266] | No/Weak | –
O=C(Nc1ccc(F)c(Cl)c1)c1cc(Cc2ccccc2)on1 [LDN-211855] | Yes | pEC50 [1]: 5.82; Emax [2]: 125%
O=C(Nc1nc(-c2ccccc2)co1)c1ccc(F)c(Cl)c1 [LDN-212011] | No | –
COc1cc2c(c(OC)c1OC)C(c1cccc3ccccc13)CC(=O)N2 (centres unmarked) [LDN-212356] | Yes | pEC50 [1]: 4.37; Emax [2]: 150%
COc1cc2c(c(OC)c1OC)C(c1cccc3ccccc13)CC(=O)N2 (centres unmarked) [LDN-212355] | No/Weak | –
CC(C)(C)c1cc(NC(=O)c2nc3ccccc3[nH]2)no1 [LDN-214095] | No | –
COc1cc2c(c(OC)c1OC)C(c1cc(Cl)ccc1F)NC(=O)N2 (centres unmarked) [LDN-213767] | Yes | Max % Activity (reporter assay, Table 6): 125%; pEC50 (reporter assay, Table 6, read-out: Ec50): 5.08
COc1cc2[nH]c(=O)cc(-c3cc(Br)ccc3F)c2c(OC)c1OC [LDN-212265] | No | –

SMILES | Active (reporter assay, Table 6) | other results
CC(C)c1cc(C(=O)NCc2ccc(F)c(Cl)c2)no1 [LDN-211834] | No | –
CC(C)c1cc(NC(=O)Cc2ccc(F)c(Cl)c2)no1 [LDN-211832] | No | –
COC1=CC2NC(=O)CC(c3cc(NC(C)=O)ccc3F)C2C(OC)=C1OC (centres unmarked) [LDN-212360] | No | –
COc1cc2c(c(OC)c1OC)C(c1cc(Cl)ccc1F)C(C)C(=O)N2 (centres unmarked) [LDN-214085] | Yes | pEC50 [1]: 5.22; Emax [2]: 180%
CC(C)(C)c1coc(NC(=O)c2ccc(F)c(Cl)c2)n1 [LDN-211992] | Yes | pEC50 [1]: 6.82; Emax [2]: 100%
CC(C)c1cc(NC(=O)c2ccc(F)c(Cl)c2)on1 [LDN-211860] | Yes | pEC50 [1]: 5.60; Emax [2]: 125%
COC1=CC2NC(=O)CC(c3cc([N+](=O)[O-])ccc3F)C2C(OC)=C1OC (centres unmarked) [LDN-212354] | No/Weak | –
COc1cc2c(c(OC)c1OC)C(c1cccnc1Cl)CC(=O)N2 (centres unmarked) [LDN-212390] | No | –
Cc1ccc(C(=O)Nc2cc(C(C)(C)C)on2)cc1C [LDN-211912] | Yes | pEC50 [1]: 5.96; Emax [2]: 150%
CC(C)C1CC(C(=O)Nc2ccc(F)c(Cl)c2)=NO1 (centres unmarked) [LDN-211862] | Nonspecific | –
CC1CC(C(=O)Nc2cccnc2)=NO1 (centres unmarked) [CAL-9] | No | –
NC[C@H]1O[C@H](O[C@H]2[C@H](O)[C@@H](O[C@H]3O[C@H](CO)[C@@H](O)[C@H](N)[C@H]3O)[C@H](N)C[C@@H]2N)[C@H](N)C[C@@H]1O [Tobramycin, tobramycin, reference compound] | – | response of luciferase activity in the reporter cell lines (SMN1-luc and SMN2-luc cell lines, words): no response; Max. fold increase: inactive ^a; EC50 (cell-based reporter, result in words): inactive ^a
CC(=O)N1c2ccccc2C(Nc2ccccc2)CC1C (centres unmarked) [Compound 66854] | – | % activation (reporter assay): 210%
O=C(Nc1ccc(F)c(Cl)c1)c1noc(C2CC2)c1[N+](=O)[O-] [CAL-38] | No | –
CC(C)(C)C(=O)Nc1nc(COc2ccccc2)cs1 [Compound 109981] | – | % activation (reporter assay): 98%
CCOC(=O)C1C(=O)Nc2cc(OC)c(OC)c(OC)c2C1c1cc(Cl)ccc1F (centres unmarked) [LDN-212388] | No | –
O=C(NCCn1ccc2ccccc21)c1ccc2c(c1)OCO2 [Compound 107992] | – | % activation (reporter assay): 121%
O=C1CC(c2cc(Br)ccc2F)c2c(ccc3ccccc23)N1 (centres unmarked) [LDN-212352] | No | –
CC(C)(C)c1cc(NC(=O)c2cc3ccccc3o2)no1 [LDN-211909] | No/Weak | –
CC(C)(C)c1cc(NC(=O)c2ccc3ccccc3n2)no1 [LDN-211908] | No/Weak | –
CC(C)c1cc(C(=O)Nc2ccc3c(c2)OCO3)no1 [LDN-75676] | Yes | pEC50 [1]: 5.59; Emax [2]: 337%; % activation (reporter assay): 136%
Cc1cnc(NC(=O)c2ccc(F)c(Cl)c2)s1 [LDN-211985] | Yes | pEC50 [1]: 6.10; Emax [2]: 150%

SMILES | Active (reporter assay, Table 6) | other results
CC(C)(C)c1c[nH]c(NC(=O)c2ccc(F)c(Cl)c2)n1 [LDN-212012] | No | –
COc1ccc2c(c1OC)C(c1cc(Br)ccc1F)CC(=O)N2 (centres unmarked) [CAL-23] | No | –
COCCOc1c(OC)cc2c(c1OC)C(c1cc(Cl)ccc1F)CC(=O)N2 (centres unmarked) [LDN-213772] | No | –
COc1cc2c(c(OC)c1OC)C(c1ccc(Cl)cn1)CC(=O)N2 (centres unmarked) [LDN-212392] | No | –
N#Cc1ccsc1NC(=O)CCc1ccccc1 [Compound 110425] | – | % activation (reporter assay): 93%
COc1ccc(NC(=O)c2cc(C(C)C)on2)cc1OC [CAL-26] | Yes | pEC50 [1]: 4.03; Emax [2]: 160%
COC(=O)c1ccc2nc(NC(=O)C(C)C)sc2c1 [Compound 110116] | – | % activation (reporter assay): 97%
CC(/C=C/C(=O)NO)=C\[C@@H](C)C(=O)c1ccc(N(C)C)cc1 [Trichostatin A, trichostatin A, reference compound] | – | Max. fold increase: 15 fold; pEC50 (cell-based reporter, known SMN2 modulating compounds, read-out: EC50): 6.64
CNC(=O)c1ccc2nc(N3CCCCC3)sc2c1 [Compound 79213] | – | % activation (reporter assay): 90%
CCCC1C(=O)Nc2cc(OC)c(OC)c(OC)c2C1c1cc(Cl)ccc1F (centres unmarked) [LDN-214096] | No | –
CC(C)c1cc(C(=O)Nc2cccc3ccccc23)no1 [LDN-211827] | No/Weak | –
COc1cc2c(c(OC)c1OC)C(c1cccc(-c3ccccc3)c1)CC(=O)N2 (centres unmarked) [LDN-212267] | No | –
Brc1ccc(OCc2cn3cccnc3n2)c(Br)c1 [Compound 67615] | – | % activation (reporter assay): 105%
COc1cc2c(c(OC)c1)C(c1cc(Br)ccc1F)CC(=O)N2 (centres unmarked) [LDN-212264] | No | –
COc1cc2c(c(OC)c1OC)C(c1cc(Cl)ccc1F)C(C)C(=O)N2 (centres unmarked) [LDN-213773] | No | –
Cn1c(C(=O)Nc2cc(C(C)(C)C)on2)cc2ccccc21 [LDN-211910] | Yes | pEC50 [1]: 6.15; Emax [2]: 100%
CC(C)(C)c1cc(NC(=O)c2ccc(F)c(Cl)c2)no1 [LDN-211831] | Yes | pEC50 [1]: 5.52; Emax [2]: 150%
COc1cc2c(c(OC)c1OC)C(c1c(F)cccc1Cl)CC(=O)N2 (centres unmarked) [CAL-53] | Yes | pEC50 [1]: 4.04; Emax [2]: 27%
O=C(c1cc(C2CC2)on1)N1CCCc2ccccc21 [CAL-36] | No | –
COc1cc2c(c(OC)c1OC)C(c1cc(F)ccc1F)CC(=O)N2 (centres unmarked) [LDN-212353] | No/Weak | –
